Measured values as given in patent US8859573B2, “Pyrimidinone and pyridinone compounds for use in the treatment of diseases or conditions mediated by Lp-PLA2” (Glaxo Group Limited, priority 2010, dated 2014).
Structures can show the parent of a compound that is named as a salt.

biological target: T1, Lp-PLA2 from plasma (Homo sapiens, UniProt Q13093); test: Lp-PLA2 human plasma assay (Thio-PAF assay); format: biochemical; settings: pooled human plasma; read-out: pIC50 values in the thio-PAF assay (converted)
T1 construct: from tissue; host or cells: pooled human plasma
T1 sequence (Q13093 22-441): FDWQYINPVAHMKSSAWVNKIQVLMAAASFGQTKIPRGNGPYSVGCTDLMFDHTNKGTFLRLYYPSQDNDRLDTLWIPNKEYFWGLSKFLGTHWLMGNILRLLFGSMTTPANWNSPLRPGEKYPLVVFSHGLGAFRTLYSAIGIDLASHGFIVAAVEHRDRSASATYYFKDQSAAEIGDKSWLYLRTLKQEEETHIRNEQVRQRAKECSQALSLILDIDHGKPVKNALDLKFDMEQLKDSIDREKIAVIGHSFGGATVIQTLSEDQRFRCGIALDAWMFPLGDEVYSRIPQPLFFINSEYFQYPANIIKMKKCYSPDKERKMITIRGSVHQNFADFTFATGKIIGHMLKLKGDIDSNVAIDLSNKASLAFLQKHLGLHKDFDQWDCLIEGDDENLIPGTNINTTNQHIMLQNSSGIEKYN
From the text: (3) Lipoprotein-Associated Phospholipase A2 (Lp-PLA2) Human Plasma Assay (Also Referred to as “Thio-PAF Assay”)
The human plasma assay utilizes a thioester analog of PAF (phosphatidylcholine), where hydrolysis yields to the formation of a phospholipid containing a free thiol group. The amount of thiol is quantitated continuously by reacting with CPM (7-diethylamino-3-(4′-maleimidylphenyl)-4-methylcoumarin), a maleimide which increases in fluoresence after Michael addition of thiols. This assay may detect the activity of Lp-PLA2 from plasma, as determined by specific inhibition by Lp-PLA2 inhibitors.
The thio-PAF assay was run as a quenched 15 μL assay. Compounds source plate was prepared by making 1:3 (by volume) serial dilution of the compounds into pure DMSO on 384-well microplate. 0.01 μL of compounds on compound source plate were transferred to 384 well Greiner 784076 (black) low-volume plates by ECHO liquid dispenser. 8 μL pooled human plasma, which was previously aliquoted and frozen, was added. Plates were centrifuged for 10 sec at 500 rpm. After 30 minutes preincubation, 2 μL of substrate (2.5 mM thio-PAF, 3.2 mM NEM (N-ethylmaleimide) [made fresh daily in DMSO], and 32 μM CPM [from a DMSO stock] in assay buffer of 50 mM HEPES, pH7.4, 150 mM NaCl, 1 mM CHAPS was added to 384 well Greiner 784076 (black) low-volume plates by BRAVO liquid handling station. Plates were centrifuged for 10 sec at 500 rpm. Plate was covered to protect from light and incubated for 2 min at room temperature. Reaction was quenched with 5 μL of 5% aqueous trifluoroacetic acid (TFA). Plates were covered to protect from light and incubated for 40 min at room temperature. Plates were read at ex: 380/em: 485 using-Envision microplate reader. PIC50 data, curve and QC analysis was conducted by using XLFit module in Excel.

| SMILES | IC50 |
| --- | --- |
| N#Cc1cc(COc2ccn(Cc3ccncc3)c(=O)n2)ccc1Oc1ccc(Cl)c(C(F)(F)F)c1 [Example 2, 2-{[4-Chloro-3-(trifluoromethyl)phenyl]oxy}-5-({[2-oxo-1-(4-pyridinylmethyl)-1,2-dihydro-4-pyrimidinyl]oxy}methyl)benzonitrile trifluoroacetate] | ≤ 100 nM |
| N#Cc1cc(COc2cc[nH]c(=O)n2)ccc1Oc1ccc(Cl)c(C(F)(F)F)c1 [Example 3, 2-(4-Chloro-3-(trifluoromethyl)phenoxy)-5-(((2-oxo-2,3-dihydropyrimidin-4-yl)oxy)methyl)benzonitrile] | > 10000 nM |
| Cn1cc(Cn2ccc(OCc3ccc(Oc4ccc(Cl)c(C(F)(F)F)c4)c(C#N)c3)nc2=O)cn1 [Example 6, 2-{[4-Chloro-3-(trifluoromethyl)phenyl]oxy}-5-[({1-[(1-methyl-1H-pyrazol-4-yl)methyl]-2-oxo-1,2-dihydro-4-pyrimidinyl}oxy)methyl]benzonitrile] | ≤ 100 nM |
| N#Cc1cc(CCOc2ccn(Cc3cccnc3)c(=O)n2)ccc1Oc1ccc(Cl)c(C(F)(F)F)c1 [Example 7, 2-{[4-Chloro-3-(trifluoromethyl)phenyl]oxy}-5-(2-{[2-oxo-1-(3-pyridinylmethyl)-1,2-dihydro-4-pyrimidinyl]oxy}ethyl)benzonitrile trifluoroacetate] | ≤ 100 nM |
| O=c1nc(OCCc2ccc(Oc3ccc(Cl)c(C(F)(F)F)c3)cc2)ccn1CCc1cccnc1 [Example 13, 4-{[2-(4-{[4-Chloro-3-(trifluoromethyl)phenyl]oxy}phenyl)ethyl]oxy}-1-[2-(3-pyridinyl)ethyl]-2 (1H)-pyrimidinone trifluoroacetate] | ≤ 1000 nM |
| O=c1nc(OCc2ccc(Oc3ccc(Cl)c(C(F)(F)F)c3)cn2)ccn1Cc1cccnc1 [Example 14, 4{[(5-{[4-Chloro-3-(trifluoromethyl)phenyl]oxy}-2-pyridinyl)methyl]oxy}-1-(3-pyridinylmethyl)-2(1H)-pyrimidinone] | ≤ 100 nM |
| Cn1cc(Cn2ccc(OCc3ccc(Oc4ccc(Cl)c(C(F)(F)F)c4)cn3)nc2=O)cn1 [Example 15, 4-{[(5-{[4-Chloro-3-(trifluoromethyl)phenyl]oxy}-2-pyridinyl)methyl]oxy}-1-[(1-methyl-1H-pyrazol-4-yl)methyl]-2(1H)-pyrimidinone] | ≤ 100 nM |
| Cn1cc(Cn2ccc(OCCc3ccc(Oc4ccc(Cl)c(C(F)(F)F)c4)cn3)nc2=O)cn1 [Example 16, 4-{[2-(5-{[4-Chloro-3-(trifluoromethyl)phenyl]oxy}-2-pyridinyl)ethyl]oxy}-1-[(1-methyl-1H-pyrazol-4-yl)methyl]-2(1H)-pyrimidinone] | ≤ 100 nM |
| N#Cc1cc(CNc2ccn(Cc3cccnc3)c(=O)n2)ccc1Oc1ccc(Cl)c(C(F)(F)F)c1 [Example 19, 2-{[4-Chloro-3-(trifluoromethyl)phenyl]oxy}-5-({[2-oxo-1-(3-pyridinylmethyl)-1,2-dihydro-4-pyrimidinyl]amino}methyl)benzonitrile] | ≤ 100 nM |
| Cn1cc(Cn2ccc(CCc3ccc(Oc4cccc(C(F)(F)F)c4)c(C#N)c3)nc2=O)cn1 [Example 20, 5-(2-{1-[(1-Methyl-1H-pyrazol-4-yl)methyl]-2-oxo-1,2-dihydro-4-pyrimidinyl}ethyl)-2-{[3-(trifluoromethyl)phenyl]oxy}benzonitrile] | ≤ 1000 nM |
| Cn1cc(Cn2ccc(OCc3ccc(Oc4ccc(Cl)c(C(F)(F)F)c4)c(C#N)c3)cc2=O)cn1 [Example 22, 2-{[4-Chloro-3-(trifluoromethyl)phenyl]oxy}-5-[({1-[(1-methyl-1H-pyrazol-4-yl)methyl]-2-oxo-1,2-dihydro-4-pyridinyl}oxy)methyl]benzonitrile] | ≤ 1000 nM |
| Cn1cc(Cn2ccc(OCCc3ccc(Oc4ccc(Cl)c(C(F)(F)F)c4)cc3)cc2=O)cn1 [Example 24, 4-{[2-(4-{[4-Chloro-3-(trifluoromethyl)phenyl]oxy}phenyl)ethyl]oxy}-1-[(1-methyl-1H-pyrazol-4-yl)methyl]-2(1H)-pyridinone] | ≤ 1000 nM |
